Measured values taken from ChEMBL document CHEMBL4130585, “Pimentelamines A-C, Indole Alkaloids Isolated from the Leaves of the Australian Tree Flindersia pimenteliana” (J Nat Prod, 2017).
Active and inactive are the calls of the source. No cut-off for these calls is given here.

Tests used:
Plasmodium falciparum [1] = experiment: Antimalarial activity against chloroquine-sensitive Plasmodium falciparum 3D7 at 40 uM after 72 hrs by DAPI staining based confocal microplate imaging method; assay type: functional, organism-based
HEK293 [2] = experiment: Cytotoxicity against HEK293 cells at 40 uM after 72 hrs by resazurin dye based assay; assay type: cell-based; conditions: human, hek293, 72 h
Plasmodium falciparum [3] = experiment: Growth inhibition of chloroquine-resistant Plasmodium falciparum Dd2 at 40 uM after 72 hrs by DAPI staining based confocal microplate imaging method relative to control; assay type: functional
Plasmodium falciparum [4] = experiment: Antimalarial activity against chloroquine-resistant Plasmodium falciparum Dd2 after 72 hrs by DAPI staining based confocal microplate imaging method; assay type: functional, organism-based; conditions: Dd2, 72 h
[5] = Selectivity index, ratio of IC50 for HEK293 cells to IC50 for chloroquine-sensitive Plasmodium falciparum 3D7; assay type: toxicity; conditions: human, read-out: Ratio IC50
HEK293 [6] = experiment: Cytotoxicity against HEK293 cells after 72 hrs by resazurin dye based assay; assay type: cell-based; conditions: Homo sapiens, HEK293, 72 h
Plasmodium falciparum [7] = experiment: Antimalarial activity against chloroquine-sensitive Plasmodium falciparum 3D7 at 5 uM after 72 hrs by DAPI staining based confocal microplate imaging method relative to control; assay type: functional
Plasmodium falciparum [8] = experiment: Antimalarial activity against chloroquine-sensitive Plasmodium falciparum 3D7 after 72 hrs by DAPI staining based confocal microplate imaging method; assay type: functional, organism-based; conditions: 3D7, 72 h

Structure (SMILES)	Activity (Plasmodium falciparum [1])	Activity (HEK293 [2])	growth inhibition (GI) (Plasmodium falciparum [3])	IC50 (Plasmodium falciparum [4])	selectivity ratio [5]	IC50 (HEK293 [6])	Activity (Plasmodium falciparum [7])	IC50 (Plasmodium falciparum [8])	inhibition of growth at 40 µM (Plasmodium falciparum [3]; Dd2, 72 h, read-out: GI)
C[C@@H]1O[C@@H](Oc2c(-c3ccc(O)c(O)c3)oc3cc(O)cc(O)c3c2=O)[C@H](O)[C@H](O)[C@H]1O [QUERCITRIN]	inactive	Non-Toxic	inactive						
COc1ccc(C[C@H](N)C(=O)N[C@H]2[C@@H](O)[C@H](n3cnc4c(N(C)C)ncnc43)O[C@@H]2CO)cc1 [PUROMYCIN]				0.032 µM	8	0.45 to 0.69 µM	100%		
C[C@H]1[C@@H](O)O[C@@H]2O[C@@]3(C)CC[C@H]4[C@H](C)CC[C@@H]1[C@@]24OO3 [ARTENIMOL]				0.0004 µM	38100	9.9 µM		0.0003 µM	
CC1(C)[C@H](Cc2[nH]c3ccccc3c2CC[N+](C)(C)O)O[C@]23OC[C@H](O)[C@H]2OC(=O)[C@]13O.O=C([O-])C(F)(F)F		Non-Toxic		2.7 µM	> 6			3.6 µM	
C[C@H]1[C@H](OC(=O)CCC(=O)O)O[C@@H]2O[C@@]3(C)CC[C@H]4[C@H](C)CC[C@@H]1[C@@]24OO3 [ARTESUNATE]					7990	7 µM		0.001 µM	
CCN(CC)CCCC(C)Nc1ccnc2cc(Cl)ccc12 (stereo not drawn) [CHLOROQUINE]						0.49 µM			
CNCCc1c(C[C@@H]2O[C@]34OC[C@H](O)[C@H]3OC(=O)[C@]4(O)C2(C)C)[nH]c2ccccc12.O=C(O)C(F)(F)F	inactive	Non-Toxic	inactive						
COc1ccc2nc3cc(Cl)ccc3c(Nc3cc(CN4CCCC4)c(O)c(CN4CCCC4)c3)c2n1 [PYRONARIDINE]				0.14 µM	239	2.9 µM			
CC1(C)C=Cc2c(cc3oc(-c4ccc(O)cc4)cc(=O)c3c2O)O1		Non-Toxic		2.3 µM	> 6			3.4 µM	
CC1=C[C@H]2[C@@H]([C@@H](c3[nH]c4ccccc4c3CCN(C)C)[C@]34CCN(C)[C@]23Nc2ccccc24)C(C)(C)C1				0.34 µM	14	7.1 µM		0.51 µM	
CCc1nc(N)nc(N)c1-c1ccc(Cl)cc1 [PYRIMETHAMINE]					120	0.69 µM		0.006 µM	59%
CC1=C[C@@H]2c3c(CCN(C)C)c4ccccc4n3[C@@H](c3[nH]c4ccccc4c3CCN(C)C)[C@@H]2C(C)(C)C1				0.19 µM	8	5.4 µM		0.67 µM	
CNCCc1c([C@@H]2[C@@H]3[C@H](C=C(C)CC3(C)C)[C@]34Nc5ccccc5[C@]23CCN4C)[nH]c2ccccc12				0.22 µM	16	5 µM		0.31 µM	
CN(C)CCc1c(C[C@@H]2O[C@]34OC[C@H](O)[C@H]3OC(=O)[C@]4(O)C2(C)C)[nH]c2ccccc12.O=C(O)C(F)(F)F	inactive	Non-Toxic	inactive						
